# System: KRAS PDC multicell spheroid viability
# Test: Anticancer human tumor 825966-067-R-J1-PDC patient-derived colon carcinoma cell line growth inhibition [KRAS2]
# Conditions: for IC50: curve of first compound; for viability, T/C: stronger effect = lower value
# Method in brief: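 KRAS-mutant tumor cells were grown as spheroids with HUVEC endothelial cells and human MSCs as stroma. Targeted agents were tested alone and with KRAS pathway inhibitors. Doses started at or near clinical Cmax, or 10 microM, descending half-log.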
# [1] = second compound 0.0316 µM, first compound 0.000316 µM
# [2] = second compound 0.0316 µM, first compound 0.001 µM
# [3] = second compound 0.0316 µM, first compound 0.00316 µM
# [4] = second compound 0.0316 µM, first compound 0.01 µM
# [5] = second compound 0.0316 µM, first compound 0.0316 µM
# [6] = second compound 0.1 µM, first compound 0.000316 µM
# [7] = second compound 0.1 µM, first compound 0.001 µM
# [8] = second compound 0.1 µM, first compound 0.00316 µM
# [9] = second compound 0.1 µM, first compound 0.01 µM
# [10] = second compound 0.1 µM, first compound 0.0316 µM
# [11] = second compound 0.316 µM, first compound 0.000316 µM
# [12] = second compound 0.316 µM, first compound 0.001 µM
# [13] = second compound 0.316 µM, first compound 0.00316 µM
# [14] = second compound 0.316 µM, first compound 0.01 µM
# [15] = second compound 0.316 µM, first compound 0.0316 µM
# [16] = second compound 1 µM, first compound 0.000316 µM
# [17] = second compound 1 µM, first compound 0.001 µM
# [18] = second compound 1 µM, first compound 0.00316 µM
# [19] = second compound 1 µM, first compound 0.01 µM
# [20] = second compound 1 µM, first compound 0.0316 µM
# [21] = second compound 3.16 µM, first compound 0.000316 µM
# [22] = second compound 3.16 µM, first compound 0.001 µM
# [23] = second compound 3.16 µM, first compound 0.00316 µM
# [24] = second compound 3.16 µM, first compound 0.01 µM
# [25] = second compound 3.16 µM, first compound 0.0316 µM
# [26] = second compound 0.0316 µM, first compound 0.1 µM
# [27] = second compound 0.1 µM, first compound 0.1 µM
# [28] = second compound 0.316 µM, first compound 0.1 µM
# [29] = second compound 1 µM, first compound 0.1 µM
# [30] = second compound 3.16 µM, first compound 0.1 µM
# [31] = second compound 0.0316 µM, first compound 0.316 µM
# [32] = second compound 0.0316 µM, first compound 1 µM
# [33] = second compound 0.0316 µM, first compound 3.16 µM
# [34] = second compound 0.0316 µM, first compound 10 µM
# [35] = second compound 0.1 µM, first compound 0.316 µM
# [36] = second compound 0.1 µM, first compound 1 µM
# [37] = second compound 0.1 µM, first compound 3.16 µM
# [38] = second compound 0.1 µM, first compound 10 µM
# [39] = second compound 0.316 µM, first compound 0.316 µM
# [40] = second compound 0.316 µM, first compound 1 µM
# [41] = second compound 0.316 µM, first compound 3.16 µM
# [42] = second compound 0.316 µM, first compound 10 µM
# [43] = second compound 1 µM, first compound 0.316 µM
# [44] = second compound 1 µM, first compound 1 µM
# [45] = second compound 1 µM, first compound 3.16 µM
# [46] = second compound 1 µM, first compound 10 µM
# [47] = second compound 3.16 µM, first compound 0.316 µM
# [48] = second compound 3.16 µM, first compound 1 µM
# [49] = second compound 3.16 µM, first compound 3.16 µM
# [50] = second compound 3.16 µM, first compound 10 µM
# 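Note: spheroids exposed to compounds for 7 days.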
# 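Throughout, for viability, T/C: 100% = DMSO vehicle control viability.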
smiles,measurement,setting,value
CC(=O)Nc1cccc(-n2c(=O)n(C3CC3)c(=O)c3c(Nc4ccc(I)cc4F)n(C)c(=O)c(C)c32)c1 + C=CC(=O)N1CCN(c2nc(OCC3CCCN3C)nc3c2CCN(c2cccc4cccc(C)c24)C3)CC1CC#N,IC50,second compound 0.0316 µM,31.6 nM
same,IC50,second compound 0.1 µM,> 31.6 nM
same,IC50,second compound 0.316 µM,23.1 nM
same,IC50,second compound 1 µM,> 31.6 nM
same,IC50,second compound 3.16 µM,5.99 nM
same,"viability, T/C","second compound 0.0316 µM, first compound 0.0001 µM",92%
same,"viability, T/C",[1],94.8%
same,"viability, T/C",[2],119%
same,"viability, T/C",[3],128%
same,"viability, T/C",[4],101%
same,"viability, T/C",[5],49.8%
same,"viability, T/C","second compound 0.1 µM, first compound 0.0001 µM",84%
same,"viability, T/C",[6],92.6%
same,"viability, T/C",[7],97.5%
same,"viability, T/C",[8],111%
same,"viability, T/C",[9],94.9%
same,"viability, T/C",[10],50.5%
same,"viability, T/C","second compound 0.316 µM, first compound 0.0001 µM",83.6%
same,"viability, T/C",[11],92.1%
same,"viability, T/C",[12],96.7%
same,"viability, T/C",[13],110%
same,"viability, T/C",[14],92.1%
same,"viability, T/C",[15],33.9%
same,"viability, T/C","second compound 1 µM, first compound 0.0001 µM",110%
same,"viability, T/C",[16],95%
same,"viability, T/C",[17],102%
same,"viability, T/C",[18],106%
same,"viability, T/C",[19],71.4%
same,"viability, T/C",[20],53.4%
same,"viability, T/C","second compound 3.16 µM, first compound 0.0001 µM",62.2%
same,"viability, T/C",[21],107%
same,"viability, T/C",[22],105%
same,"viability, T/C",[23],121%
same,"viability, T/C",[24],5.74%
same,"viability, T/C",[25],16.1%
CC(C)n1nc(-c2ccc3oc(N)nc3c2)c2c(N)ncnc21 + C=CC(=O)N1CCN(c2nc(OCC3CCCN3C)nc3c2CCN(c2cccc4cccc(C)c24)C3)CC1CC#N,IC50,second compound 0.0316 µM,> 100 nM
same,IC50,second compound 0.1 µM,> 100 nM
same,IC50,second compound 0.316 µM,> 100 nM
same,IC50,second compound 1 µM,> 100 nM
same,IC50,second compound 3.16 µM,9.07 nM
same,"viability, T/C",[1],111%
same,"viability, T/C",[2],86.4%
same,"viability, T/C",[3],116%
same,"viability, T/C",[4],153%
same,"viability, T/C",[5],113%
same,"viability, T/C",[26],141%
same,"viability, T/C",[6],81.6%
same,"viability, T/C",[7],106%
same,"viability, T/C",[8],119%
same,"viability, T/C",[9],162%
same,"viability, T/C",[10],113%
same,"viability, T/C",[27],108%
same,"viability, T/C",[11],92%
same,"viability, T/C",[12],97.3%
same,"viability, T/C",[13],129%
same,"viability, T/C",[14],154%
same,"viability, T/C",[15],115%
same,"viability, T/C",[28],94.7%
same,"viability, T/C",[16],89.3%
same,"viability, T/C",[17],108%
same,"viability, T/C",[18],105%
same,"viability, T/C",[19],154%
same,"viability, T/C",[20],98.7%
same,"viability, T/C",[29],85.2%
same,"viability, T/C",[21],106%
same,"viability, T/C",[22],84.9%
same,"viability, T/C",[23],116%
same,"viability, T/C",[24],39.9%
same,"viability, T/C",[25],64.4%
same,"viability, T/C",[30],31.2%
COc1cc(Nc2ncc3c(n2)-c2ccc(Cl)cc2C(c2c(F)cccc2OC)=NC3)ccc1C(=O)O + C=CC(=O)N1CCN(c2nc(OCC3CCCN3C)nc3c2CCN(c2cccc4cccc(C)c24)C3)CC1CC#N,IC50,second compound 0.0316 µM,> 10000 nM
same,IC50,second compound 0.1 µM,> 10000 nM
same,IC50,second compound 0.316 µM,> 10000 nM
same,IC50,second compound 1 µM,> 10000 nM
same,IC50,second compound 3.16 µM,4430 nM
same,"viability, T/C",[5],136%
same,"viability, T/C",[26],129%
same,"viability, T/C",[31],144%
same,"viability, T/C",[32],137%
same,"viability, T/C",[33],138%
same,"viability, T/C",[34],127%
same,"viability, T/C",[10],129%
same,"viability, T/C",[27],142%
same,"viability, T/C",[35],123%
same,"viability, T/C",[36],129%
same,"viability, T/C",[37],122%
same,"viability, T/C",[38],140%
same,"viability, T/C",[15],124%
same,"viability, T/C",[28],154%
same,"viability, T/C",[39],112%
same,"viability, T/C",[40],134%
same,"viability, T/C",[41],129%
same,"viability, T/C",[42],141%
same,"viability, T/C",[20],104%
same,"viability, T/C",[29],150%
same,"viability, T/C",[43],153%
same,"viability, T/C",[44],135%
same,"viability, T/C",[45],121%
same,"viability, T/C",[46],114%
same,"viability, T/C",[25],45%
same,"viability, T/C",[30],130%
same,"viability, T/C",[47],73.1%
same,"viability, T/C",[48],104%
same,"viability, T/C",[49],67.1%
same,"viability, T/C",[50],8.84%
COc1cc2nccc(Oc3ccc(NC(=O)C4(C(=O)Nc5ccc(F)cc5)CC4)cc3)c2cc1OC + C=CC(=O)N1CCN(c2nc(OCC3CCCN3C)nc3c2CCN(c2cccc4cccc(C)c24)C3)CC1CC#N,IC50,second compound 0.0316 µM,1640 nM
same,IC50,second compound 0.1 µM,1800 nM
same,IC50,second compound 0.316 µM,1660 nM
same,IC50,second compound 1 µM,1590 nM
same,IC50,second compound 3.16 µM,688 nM
same,"viability, T/C",[5],96.4%
same,"viability, T/C",[26],106%
same,"viability, T/C",[31],84%
same,"viability, T/C",[32],83.1%
same,"viability, T/C",[33],4.36%
same,"viability, T/C",[34],8.53%
same,"viability, T/C",[10],117%
same,"viability, T/C",[27],97.3%
same,"viability, T/C",[35],74.1%
same,"viability, T/C",[36],86.3%
same,"viability, T/C",[37],15.3%
same,"viability, T/C",[38],7.78%
same,"viability, T/C",[15],122%
same,"viability, T/C",[28],91.6%
same,"viability, T/C",[39],107%
same,"viability, T/C",[40],79.7%
same,"viability, T/C",[41],12%
same,"viability, T/C",[42],7.79%
same,"viability, T/C",[20],103%
same,"viability, T/C",[29],78.7%
same,"viability, T/C",[43],78.1%
same,"viability, T/C",[44],81.3%
same,"viability, T/C",[45],3.62%
same,"viability, T/C",[46],2%
same,"viability, T/C",[25],86.1%
same,"viability, T/C",[30],83.6%
same,"viability, T/C",[47],108%
same,"viability, T/C",[48],29.5%
same,"viability, T/C",[49],0.34%
same,"viability, T/C",[50],0.17%
